# Data taken from ChEMBL document CHEMBL4507264, “Data for DCP probe BAY-7598” (2021).
# Calls of active or inactive are those of the source. No cut-off for these calls is given here.
# Assays:
# Rattus norvegicus [1] = organism: Rattus norvegicus; assay: Testosterone Eurofins-Panlabs radioligand binding assay; parameters: ligand concentration 1.5 nM; details: Compound concentration 10.0 uM
# [2] = biological target: GABA-A receptor; anion channel (Rattus norvegicus) (UniProt O09028+P15431+P18506+P18508+P19969+P20236+P23574+P23576+P28471+P28473+P30191+P62813+P63079+P63138+Q91ZM7+Q9ES14); assay: Inhibition of GABAA, Muscimol, Central at 10 µM in the Eurofins-Panlabs radioligand binding assay (Eurofins_assay_226500); type: protein-complex assay; details: Compound concentration 10.0 uM
# [3] = biological target: T1, 5-hydroxytryptamine receptor 1A (Homo sapiens) (UniProt P08908); details: Compound concentration 10.0 uM
# T1 sequence (whole entry): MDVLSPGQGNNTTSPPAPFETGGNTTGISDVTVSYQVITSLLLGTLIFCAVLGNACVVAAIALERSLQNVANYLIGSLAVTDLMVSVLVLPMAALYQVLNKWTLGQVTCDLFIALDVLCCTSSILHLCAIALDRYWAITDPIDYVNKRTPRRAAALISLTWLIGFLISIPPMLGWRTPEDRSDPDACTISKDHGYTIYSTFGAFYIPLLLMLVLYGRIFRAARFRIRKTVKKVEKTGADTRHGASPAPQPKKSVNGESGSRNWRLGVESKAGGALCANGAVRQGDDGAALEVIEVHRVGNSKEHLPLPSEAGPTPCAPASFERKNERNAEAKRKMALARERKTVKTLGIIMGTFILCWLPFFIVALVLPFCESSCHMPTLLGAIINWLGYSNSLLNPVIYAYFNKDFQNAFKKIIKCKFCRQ
# [4] = biological target: Glutamate NMDA receptor (Rattus norvegicus) (UniProt P35439+Q00959+Q00960+Q00961+Q62645+Q8VHN2+Q9R1M7); details: Compound concentration 10.0 uM
# [5] = biological target: Gamma-aminobutyric acid type B receptor subunit 1 (Homo sapiens) (UniProt Q9UBS5); assay: Inhibition of GABAB1A at compound concentration of 10.0 uM in the Eurofins-Panlabs radioligand binding assay (Eurofins_assay_228610); parameters: ligand concentration 4 nM; details: Compound concentration 10.0 uM
# [6] = biological target: Alpha-1A adrenergic receptor (Homo sapiens) (UniProt P35348); details: Rattus norvegicus; Compound concentration 10.0 uM
# [7] = biological target: D(1A) dopamine receptor (Homo sapiens) (UniProt P21728); details: Compound concentration 10.0 uM
# [8] = biological target: Beta-1 adrenergic receptor (Homo sapiens) (UniProt P08588); details: Compound concentration 10.0 uM
# Rattus norvegicus [9] = organism: Rattus norvegicus; assay: Inhibition of Imidazoline I2, Central at 10 µM in the Eurofins-Panlabs radioligand binding assay (Eurofins_assay_241000); parameters: ligand concentration 2 nM; details: Compound concentration 10.0 uM
# [10] = biological target: Neuropeptide Y receptor type 1 (Homo sapiens) (UniProt P25929); assay: Inhibition of Neuropeptide Y Y1 at 10 µM in the Eurofins-Panlabs radioligand binding assay (Eurofins_assay_257010); details: Compound concentration 10.0 uM
# Mus musculus [11] = organism: Mus musculus; assay: Inhibition of Phorbol Ester at 10 µM in the Eurofins-Panlabs radioligand binding assay (Eurofins_assay_264500); parameters: ligand concentration 3 nM; details: Compound concentration 10.0 uM
# Mus musculus [12] = organism: Mus musculus; assay: Inhibition of Interleukin IL-1 at 10 µM in the Eurofins-Panlabs radioligand binding assay (Eurofins_assay_243520); parameters: ligand concentration 0.1 nM; details: Compound concentration 10.0 uM
# [13] = biological target: Acetylcholine receptor subunit alpha (Homo sapiens) (UniProt P02708); assay: Inhibition of Nicotinic Acetylcholine D1, Bungarotoxin at 10 µM in the Eurofins-Panlabs radioligand binding assay (Eurofins_assay_258700); details: Compound concentration 10.0 uM
# Oryctolagus cuniculus = organism: Oryctolagus cuniculus; assay: Inhibition of Purinergic P2X at 10 µM in the Eurofins-Panlabs radioligand binding assay (Eurofins_assay_268700); type: protein assay; details: Compound concentration 10.0 uM
# [14] = biological target: Adenosine receptor A2a (Homo sapiens) (UniProt P29274); details: Compound concentration 10.0 uM
# [15] = biological target: Glucocorticoid receptor (Homo sapiens) (UniProt P04150); details: Compound concentration 10.0 uM
# [16] = biological target: Sodium-dependent noradrenaline transporter (Homo sapiens) (UniProt P23975); details: Compound concentration 10.0 uM
# [17] = biological target: Muscarinic acetylcholine receptor M3 (Homo sapiens) (UniProt P20309); details: Compound concentration 10.0 uM
# hERG (KCNH2) = hERG (KCNH2) (Homo sapiens, UniProt Q12809); assay: Inhibition of Potassium Channel hERG at 10 µM in the Eurofins-Panlabs radioligand binding assay (Eurofins_assay_265900); parameters: ligand concentration 1.5 nM, non-specific ligand with concentration Astemizole, incubation time 60 min, incubation temperature 25 °C; details: HEK-293 cells expressing human recombinant hERG, probe [3H] Astemizole, compound concentration 10 uM
# [18] = biological target: Macrophage metalloelastase (Homo sapiens, UniProt P39900); assay: Biophysical assay (SPR biosensor-based assay)
# [19] = biological target: Kappa-type opioid receptor (Homo sapiens) (UniProt P41145); details: Compound concentration 10.0 uM
# [20] = biological target: L-type calcium channel, benzothiazepine site (Cav1.2 alpha-1C) (Homo sapiens, UniProt Q13936); assay: Inhibition of Calcium Channel L-Type, Benzothiazepine at 10 µM in the Eurofins-Panlabs radioligand binding assay (Eurofins_assay_214510); parameters: ligand concentration 2 nM, non-specific ligand with concentration 10 µM Diltiazem, incubation time 3h, incubation temperature 4 °C; details: male, Wistar, rat, rat whole brain preparation, probe [3H] Diltiazem; compound concentration 10 uM; target entry is the homologue from another species
# [21] = biological target: Mu-type opioid receptor (Homo sapiens) (UniProt P35372); details: Compound concentration 10.0 uM
# [22] = biological target: 5-hydroxytryptamine receptor 3A (Homo sapiens) (UniProt P46098); details: Compound concentration 10.0 uM
# [23] = biological target: L-type calcium channel, dihydropyridine site (Cav1.2 alpha-1C) (Homo sapiens, UniProt Q13936); assay: Inhibition of Calcium Channel L-Type, Dihydropyridine at 10 µM in the Eurofins-Panlabs radioligand binding assay (Eurofins_assay_214600); parameters: ligand concentration 0.1 nM, non-specific ligand with concentration 1 µM Nitrendipine, incubation time 90 min, incubation temperature 25 °C; details: Wistar, rat, rat cerebral cortex preparation, probe [3H] Nitrendipine; compound concentration 10 uM; target entry is the homologue from another species
# [24] = biological target: voltage-gated sodium channel, site 2 (Rattus norvegicus, UniProt F1LQQ7+O08562+O88420+O88457+P04774+P04775+P08104+P15389+P15390+Q62968); assay: Inhibition of Sodium Channel, Site 2 at 10 µM in the Eurofins-Panlabs radioligand binding assay (Eurofins_assay_279510); type: protein assay; parameters: ligand concentration 5 nM, non-specific ligand with concentration 100 µM Veratridine, incubation time 60 min, incubation temperature 37 °C; details: male, Wistar, rat whole brain (except cerebellum) membranes, probe [3H] Batrachotoxinin, compound concentration 10 uM
# hERG (KCNH2), sequence (Q12809 whole entry): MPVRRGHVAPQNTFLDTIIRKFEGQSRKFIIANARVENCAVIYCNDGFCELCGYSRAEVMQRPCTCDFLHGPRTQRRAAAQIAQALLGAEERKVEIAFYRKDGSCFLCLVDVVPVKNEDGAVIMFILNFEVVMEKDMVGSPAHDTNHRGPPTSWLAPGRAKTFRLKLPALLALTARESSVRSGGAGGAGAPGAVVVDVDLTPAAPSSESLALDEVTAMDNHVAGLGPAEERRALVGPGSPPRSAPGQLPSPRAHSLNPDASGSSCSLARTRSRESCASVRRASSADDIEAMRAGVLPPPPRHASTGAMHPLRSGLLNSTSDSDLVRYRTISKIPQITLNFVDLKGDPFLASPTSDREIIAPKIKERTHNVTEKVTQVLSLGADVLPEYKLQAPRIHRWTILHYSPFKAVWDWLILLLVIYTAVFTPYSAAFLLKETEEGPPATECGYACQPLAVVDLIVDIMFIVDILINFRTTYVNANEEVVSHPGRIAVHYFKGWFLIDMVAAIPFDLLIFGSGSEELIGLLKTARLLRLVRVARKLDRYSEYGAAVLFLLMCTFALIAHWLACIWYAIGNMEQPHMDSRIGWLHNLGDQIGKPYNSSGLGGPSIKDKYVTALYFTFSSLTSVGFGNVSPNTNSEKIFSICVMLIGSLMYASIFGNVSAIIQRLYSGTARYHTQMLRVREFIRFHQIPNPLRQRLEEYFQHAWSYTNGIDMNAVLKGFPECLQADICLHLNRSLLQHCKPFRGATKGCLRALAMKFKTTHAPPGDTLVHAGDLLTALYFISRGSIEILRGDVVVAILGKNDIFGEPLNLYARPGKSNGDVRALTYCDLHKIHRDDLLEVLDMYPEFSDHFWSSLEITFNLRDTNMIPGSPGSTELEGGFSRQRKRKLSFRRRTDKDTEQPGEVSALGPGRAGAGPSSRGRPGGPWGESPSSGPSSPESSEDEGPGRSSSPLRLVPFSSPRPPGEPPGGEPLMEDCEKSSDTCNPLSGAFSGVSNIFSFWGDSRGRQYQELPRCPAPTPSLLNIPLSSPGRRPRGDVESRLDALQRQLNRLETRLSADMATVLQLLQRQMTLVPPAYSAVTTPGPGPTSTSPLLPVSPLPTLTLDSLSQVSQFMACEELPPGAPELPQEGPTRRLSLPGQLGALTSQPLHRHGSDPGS
# Acetylcholine receptor subunit alpha (Homo sapiens), sequence (P02708 whole entry): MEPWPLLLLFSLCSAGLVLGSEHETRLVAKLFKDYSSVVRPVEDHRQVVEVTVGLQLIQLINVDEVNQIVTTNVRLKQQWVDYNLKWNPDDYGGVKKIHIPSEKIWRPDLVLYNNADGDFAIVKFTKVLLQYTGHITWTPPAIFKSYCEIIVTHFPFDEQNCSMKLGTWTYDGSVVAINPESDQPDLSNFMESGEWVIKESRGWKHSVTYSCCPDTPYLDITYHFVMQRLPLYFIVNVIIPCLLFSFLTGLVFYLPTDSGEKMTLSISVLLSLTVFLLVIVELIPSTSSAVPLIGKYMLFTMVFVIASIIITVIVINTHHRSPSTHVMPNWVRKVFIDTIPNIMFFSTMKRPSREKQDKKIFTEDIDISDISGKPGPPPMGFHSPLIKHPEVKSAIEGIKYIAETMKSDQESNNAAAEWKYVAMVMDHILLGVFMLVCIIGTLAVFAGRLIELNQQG
# L-type calcium channel, benzothiazepine site (Cav1.2 alpha-1C), sequence (Q13936 whole entry): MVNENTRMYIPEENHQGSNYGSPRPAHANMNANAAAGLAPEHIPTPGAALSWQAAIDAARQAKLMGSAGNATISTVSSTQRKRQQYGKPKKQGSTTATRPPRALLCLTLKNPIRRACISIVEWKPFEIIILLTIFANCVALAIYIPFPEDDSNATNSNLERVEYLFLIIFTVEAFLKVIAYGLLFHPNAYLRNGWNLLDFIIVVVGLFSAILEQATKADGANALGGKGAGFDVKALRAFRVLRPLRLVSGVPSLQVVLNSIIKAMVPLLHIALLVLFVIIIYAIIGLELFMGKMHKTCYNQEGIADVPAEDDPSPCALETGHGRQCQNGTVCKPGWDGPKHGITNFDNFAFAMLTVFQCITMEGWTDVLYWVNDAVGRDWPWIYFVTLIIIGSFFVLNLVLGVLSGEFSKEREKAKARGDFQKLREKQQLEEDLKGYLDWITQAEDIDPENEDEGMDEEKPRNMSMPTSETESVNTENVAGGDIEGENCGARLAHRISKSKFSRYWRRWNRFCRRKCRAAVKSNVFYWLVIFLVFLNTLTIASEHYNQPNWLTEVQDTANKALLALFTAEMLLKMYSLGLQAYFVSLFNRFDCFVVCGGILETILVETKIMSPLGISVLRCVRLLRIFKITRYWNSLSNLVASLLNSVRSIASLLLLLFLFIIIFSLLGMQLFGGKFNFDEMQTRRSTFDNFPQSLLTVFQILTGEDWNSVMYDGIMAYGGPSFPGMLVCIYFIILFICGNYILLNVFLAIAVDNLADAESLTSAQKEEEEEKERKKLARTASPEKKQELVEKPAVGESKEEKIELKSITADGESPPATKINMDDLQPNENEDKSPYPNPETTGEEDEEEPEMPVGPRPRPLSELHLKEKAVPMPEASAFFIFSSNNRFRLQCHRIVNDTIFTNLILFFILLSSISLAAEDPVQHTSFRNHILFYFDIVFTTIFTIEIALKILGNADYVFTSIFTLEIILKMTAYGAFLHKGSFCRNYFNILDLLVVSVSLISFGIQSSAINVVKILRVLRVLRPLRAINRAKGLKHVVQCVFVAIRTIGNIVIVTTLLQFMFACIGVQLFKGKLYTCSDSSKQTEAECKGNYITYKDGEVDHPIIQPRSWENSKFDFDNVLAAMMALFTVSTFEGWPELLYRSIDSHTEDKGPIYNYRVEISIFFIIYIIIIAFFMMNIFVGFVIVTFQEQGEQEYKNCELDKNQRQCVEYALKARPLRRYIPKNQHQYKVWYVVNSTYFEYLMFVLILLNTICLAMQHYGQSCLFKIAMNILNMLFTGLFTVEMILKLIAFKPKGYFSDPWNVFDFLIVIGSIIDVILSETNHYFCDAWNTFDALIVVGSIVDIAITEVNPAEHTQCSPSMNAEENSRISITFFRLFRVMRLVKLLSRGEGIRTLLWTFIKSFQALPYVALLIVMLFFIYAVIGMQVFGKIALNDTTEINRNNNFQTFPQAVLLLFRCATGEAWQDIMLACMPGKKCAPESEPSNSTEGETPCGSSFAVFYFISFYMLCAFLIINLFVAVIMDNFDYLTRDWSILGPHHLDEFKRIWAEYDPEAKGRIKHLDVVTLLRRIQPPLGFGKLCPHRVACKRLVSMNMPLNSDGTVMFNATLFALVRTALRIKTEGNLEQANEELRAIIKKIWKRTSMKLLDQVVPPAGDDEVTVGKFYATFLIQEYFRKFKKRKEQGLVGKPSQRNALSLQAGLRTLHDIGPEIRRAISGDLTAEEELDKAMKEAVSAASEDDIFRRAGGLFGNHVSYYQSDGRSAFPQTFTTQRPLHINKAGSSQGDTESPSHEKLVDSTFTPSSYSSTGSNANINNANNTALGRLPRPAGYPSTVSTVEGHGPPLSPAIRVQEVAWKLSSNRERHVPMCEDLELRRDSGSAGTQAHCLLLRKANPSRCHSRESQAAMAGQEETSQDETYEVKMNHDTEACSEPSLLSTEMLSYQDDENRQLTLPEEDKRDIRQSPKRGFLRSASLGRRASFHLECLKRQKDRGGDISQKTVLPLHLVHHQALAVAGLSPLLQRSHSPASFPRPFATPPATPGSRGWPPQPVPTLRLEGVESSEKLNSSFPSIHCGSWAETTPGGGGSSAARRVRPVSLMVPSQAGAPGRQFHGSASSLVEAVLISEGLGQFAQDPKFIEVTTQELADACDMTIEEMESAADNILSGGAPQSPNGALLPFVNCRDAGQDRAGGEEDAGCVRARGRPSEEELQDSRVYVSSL
# L-type calcium channel, dihydropyridine site (Cav1.2 alpha-1C), sequence (Q13936 whole entry): as above
# Glucocorticoid receptor (Homo sapiens), sequence (P04150 whole entry): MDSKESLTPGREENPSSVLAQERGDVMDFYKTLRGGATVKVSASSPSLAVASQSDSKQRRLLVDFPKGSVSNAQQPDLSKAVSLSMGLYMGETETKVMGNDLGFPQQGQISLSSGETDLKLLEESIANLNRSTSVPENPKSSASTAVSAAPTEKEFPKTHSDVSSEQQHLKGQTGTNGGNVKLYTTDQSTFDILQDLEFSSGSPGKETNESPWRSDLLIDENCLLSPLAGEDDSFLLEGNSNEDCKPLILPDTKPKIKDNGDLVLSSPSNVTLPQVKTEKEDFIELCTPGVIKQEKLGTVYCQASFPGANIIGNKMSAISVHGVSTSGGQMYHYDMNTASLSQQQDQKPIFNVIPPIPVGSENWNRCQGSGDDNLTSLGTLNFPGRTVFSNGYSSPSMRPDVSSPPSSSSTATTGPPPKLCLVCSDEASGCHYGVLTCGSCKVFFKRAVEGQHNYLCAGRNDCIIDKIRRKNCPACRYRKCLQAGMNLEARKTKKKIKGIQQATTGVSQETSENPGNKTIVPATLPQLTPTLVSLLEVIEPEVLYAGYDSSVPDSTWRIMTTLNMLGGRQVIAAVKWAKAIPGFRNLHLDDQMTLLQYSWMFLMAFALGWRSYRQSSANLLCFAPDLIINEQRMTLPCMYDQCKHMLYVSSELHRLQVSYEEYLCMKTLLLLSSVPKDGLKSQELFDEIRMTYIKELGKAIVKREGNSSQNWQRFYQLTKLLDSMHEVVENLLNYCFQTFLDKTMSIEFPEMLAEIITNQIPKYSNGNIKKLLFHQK
# Adenosine receptor A2a (Homo sapiens), sequence (P29274 whole entry): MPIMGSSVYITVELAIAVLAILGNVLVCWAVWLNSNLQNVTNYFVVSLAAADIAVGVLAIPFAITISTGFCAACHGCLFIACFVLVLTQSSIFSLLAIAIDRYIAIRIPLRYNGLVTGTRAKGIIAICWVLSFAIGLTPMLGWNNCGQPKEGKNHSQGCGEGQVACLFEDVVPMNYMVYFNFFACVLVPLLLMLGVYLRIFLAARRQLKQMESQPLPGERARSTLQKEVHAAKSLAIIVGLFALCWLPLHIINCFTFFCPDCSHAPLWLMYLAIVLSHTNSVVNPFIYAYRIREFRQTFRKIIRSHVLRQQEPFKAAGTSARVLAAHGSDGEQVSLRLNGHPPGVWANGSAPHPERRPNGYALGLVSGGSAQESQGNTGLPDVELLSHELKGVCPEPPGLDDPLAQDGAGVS
smiles,measurement,setting,value
O=C(O)[C@H]1[C@H](Cn2nnc3ccccc3c2=O)CC[C@@H]1C(=O)c1ccc(OCCC2CCOCC2)cc1 [BAY-7598],inhibition,Rattus norvegicus [1],12%
same,inhibition,[2],10%
same,inhibition,[3],-9%
same,inhibition,[4],9%
same,inhibition,[5],0%
same,inhibition,[6],1%
same,inhibition,[7],3%
same,inhibition,[8],0%
same,inhibition,Rattus norvegicus [9],5%
same,inhibition,[10],1%
same,inhibition,Mus musculus [11],4%
same,inhibition,Mus musculus [12],0%
same,inhibition,[13],0%
same,inhibition,Oryctolagus cuniculus,-1%
same,inhibition,[14],7%
same,inhibition,[15],12%
same,inhibition,[16],6%
same,inhibition,[17],2%
same,"inhibition at 60 min, 10 µM",hERG (KCNH2),7% (not active)
same,Kd,[18],4 pM (active)
same,inhibition,[19],7%
same,"inhibition at 3 h, 10 µM",[20],-9% (not active)
same,inhibition,[21],-9%
same,inhibition,[22],-7.84%
same,"inhibition at 90 min, 10 µM",[23],0% (not active)
same,"inhibition at 60 min, 10 µM",[24],-1% (not active)
